Measured values from PubChem BioAssay (NCI).
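Protocol summary: plate cells (96-well), add compound at 5 concentrations, incubate 48 h, interpolate endpoints linearly. At the TGI there is no net growth.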

What was measured:
Experiment in all cases: growth of human tumour cells (NCI), 48 h
IGROV1 ovarian = test system: IGROV1 ovarian
SF-268 CNS = test system: SF-268 CNS
A549 NSCLC = test system: A549 NSCLC
KM12 colon = test system: KM12 colon
SK-OV-3 ovarian = test system: SK-OV-3 ovarian
SK-MEL-28 melanoma = test system: SK-MEL-28 melanoma
MDA-MB-435 = test system: MDA-MB-435
HCT-15 colon = test system: HCT-15 colon
SW-620 colon = test system: SW-620 colon
NCI-H522 lung = test system: NCI-H522 lung
COLO 205 colon = test system: COLO 205 colon
UO-31 renal = test system: UO-31 renal
A498 renal = test system: A498 renal
HOP-92 NSCLC = test system: HOP-92 NSCLC
PC-3 prostate = test system: PC-3 prostate
UACC-257 melanoma = test system: UACC-257 melanoma
MCF7 breast = test system: MCF7 breast
OVCAR-3 ovarian = test system: OVCAR-3 ovarian
ACHN renal = test system: ACHN renal
NCI-H460 lung = test system: NCI-H460 lung
HT29 colon = test system: HT29 colon
RXF 393 renal = test system: RXF 393 renal
NCI/ADR-RES ovarian = test system: NCI/ADR-RES ovarian
DU-145 prostate = test system: DU-145 prostate
OVCAR-4 ovarian = test system: OVCAR-4 ovarian
HL-60(TB) leukemia = test system: HL-60(TB) leukemia
SNB-19 CNS = test system: SNB-19 CNS
SNB-75 CNS = test system: SNB-75 CNS
CCRF-CEM leukemia = test system: CCRF-CEM leukemia
SK-MEL-5 melanoma = test system: SK-MEL-5 melanoma
MDA-N = test system: MDA-N
HCC-2998 colon = test system: HCC-2998 colon
MDA-MB-231 breast = test system: MDA-MB-231 breast
NCI-H23 lung = test system: NCI-H23 lung
OVCAR-5 ovarian = test system: OVCAR-5 ovarian
U251 CNS = test system: U251 CNS
EKVX NSCLC = test system: EKVX NSCLC
HOP-62 NSCLC = test system: HOP-62 NSCLC
HS 578T breast = test system: HS 578T breast
BT-549 breast = test system: BT-549 breast
MALME-3M melanoma = test system: MALME-3M melanoma
SR leukemia = test system: SR leukemia
HCT-116 colon = test system: HCT-116 colon
LOX IMVI melanoma = test system: LOX IMVI melanoma
M14 melanoma = test system: M14 melanoma
T-47D breast = test system: T-47D breast
SK-MEL-2 melanoma = test system: SK-MEL-2 melanoma
CAKI-1 renal = test system: CAKI-1 renal
RPMI-8226 leukemia = test system: RPMI-8226 leukemia
SN12C renal = test system: SN12C renal
UACC-62 melanoma = test system: UACC-62 melanoma
SF-539 CNS = test system: SF-539 CNS
786-0 renal = test system: 786-0 renal
OVCAR-8 ovarian = test system: OVCAR-8 ovarian
SF-295 CNS = test system: SF-295 CNS
TK-10 renal = test system: TK-10 renal
NCI-H226 lung = test system: NCI-H226 lung
K-562 leukemia = test system: K-562 leukemia
MOLT-4 leukemia = test system: MOLT-4 leukemia

Measured: TGI

COCC12CCC(OC)C34C5CC6(O)C(OC)C=C(C5C6OC(=O)c5ccccc5)C(C(OC)C13)C4N(C)C2 (stereo unspecified)
not listed: NCI-H226 lung | K-562 leukemia | MOLT-4 leukemia
> 100 µM: all other assays above

CC1(C)OC2C(CO)OC(n3ccc(N)nc3=O)C2O1 (stereo unspecified)
not listed: HT29 colon | OVCAR-4 ovarian | SNB-75 CNS
> 100 µM: all other assays above

O=C(O)CNCCc1ccccc1
not listed: UACC-257 melanoma | HCC-2998 colon | SF-539 CNS | MOLT-4 leukemia
> 100 µM: all other assays above

O=c1nc2c(c(-c3ccc(F)cc3)[nH]1)COC/C2=C\c1ccc(F)cc1
not listed: A549 NSCLC | SK-MEL-28 melanoma | HT29 colon | HL-60(TB) leukemia | MALME-3M melanoma
> 100 µM: all other assays above
